One test addresses T1, Kir3.1/3.2 (Homo sapiens, UniProt P48051+P48549).
T1 construct: expressed in transfected cells
T1 sequence (P48549 1-501): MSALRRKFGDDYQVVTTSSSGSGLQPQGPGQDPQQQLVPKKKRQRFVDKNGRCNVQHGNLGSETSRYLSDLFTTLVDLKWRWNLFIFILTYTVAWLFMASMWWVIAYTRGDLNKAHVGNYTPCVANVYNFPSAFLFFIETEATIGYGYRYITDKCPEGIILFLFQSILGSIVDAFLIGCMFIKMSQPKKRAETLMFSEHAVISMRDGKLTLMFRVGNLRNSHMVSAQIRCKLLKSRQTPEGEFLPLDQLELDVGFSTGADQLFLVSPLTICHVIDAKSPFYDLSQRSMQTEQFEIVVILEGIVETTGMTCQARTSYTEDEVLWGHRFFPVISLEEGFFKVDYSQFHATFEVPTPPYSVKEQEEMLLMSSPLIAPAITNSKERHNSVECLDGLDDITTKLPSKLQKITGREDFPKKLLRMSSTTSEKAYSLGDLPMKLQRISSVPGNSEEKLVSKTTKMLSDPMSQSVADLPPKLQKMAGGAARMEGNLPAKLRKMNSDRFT
T1 sequence (P48051 1-423): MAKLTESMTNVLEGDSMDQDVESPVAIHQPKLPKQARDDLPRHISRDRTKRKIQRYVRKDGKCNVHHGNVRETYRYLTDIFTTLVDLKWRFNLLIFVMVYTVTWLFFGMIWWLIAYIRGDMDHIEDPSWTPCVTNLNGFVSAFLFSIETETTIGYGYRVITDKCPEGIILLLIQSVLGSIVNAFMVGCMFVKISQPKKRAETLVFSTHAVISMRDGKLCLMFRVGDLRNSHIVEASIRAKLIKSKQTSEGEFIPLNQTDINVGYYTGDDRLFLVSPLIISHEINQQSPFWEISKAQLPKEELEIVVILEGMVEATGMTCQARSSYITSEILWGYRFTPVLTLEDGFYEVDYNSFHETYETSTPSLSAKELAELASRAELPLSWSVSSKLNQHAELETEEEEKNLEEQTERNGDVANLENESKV
The test is described as follows: Tl+ flux selectivity assay, Kir3.1/3.2. In kind it is cell-based. As to conditions: Kir3.1/3.2 (with mGlu8, EC80 glutamate); n = 2 independent experiments in triplicate; read-out: Inhibition of Tl+ flux (IC50). The protocol:
[Worded in the source for another target; used here, by the source, with some conditions changed.] Tl^+ flux assays were performed essentially as described previously, [18], [19]. Briefly, stably transfected T-Rex-HEK-293 cells expressing AeKir1 channels were cultured overnight in 384-well plates (20,000 cells/20 µL/well black-walled, clear-bottomed BD PureCoat amine-coated plates (BD, Bedford, MA) with a plating media containing DMEM, 10% dialyzed FBS and 1 µg/mL tetracycline. The next day, the cell culture medium was replaced with a dye-loading solution containing assay buffer (Hanks Balanced Salt Solution with 20 mM HEPES, pH 7.3), 0.01% (w/v) Pluronic F-127 (Life Technologies, Carlsbad, CA), and 1.2 µM of the thallium-sensitive dye Thallos-AM (TEFlabs, Austin, TX). Following 1 hr incubation at room temperature, the dye-loading solution was washed from the plates and replaced with 20 µL/well of assay buffer. […] Tl^+ flux data were analyzed as previously described, [21], [22] using a combination of Excel (Microsoft Corp, Redmond, WA) with XLfit add-in (IDBS, Guildford, Surrey, UK) and OriginPro (OriginLab, Northampton, MA) software. […] The slope of the fluorescence increase beginning 5 s after Tl^+ addition and ending 15 s after Tl^+ addition was calculated.

In the next test the target is T2, Kir7.1(M125R) (Homo sapiens, UniProt O60928, M125R).
T2 construct: expressed in transfected cells
T2 sequence (O60928 1-360 M125R): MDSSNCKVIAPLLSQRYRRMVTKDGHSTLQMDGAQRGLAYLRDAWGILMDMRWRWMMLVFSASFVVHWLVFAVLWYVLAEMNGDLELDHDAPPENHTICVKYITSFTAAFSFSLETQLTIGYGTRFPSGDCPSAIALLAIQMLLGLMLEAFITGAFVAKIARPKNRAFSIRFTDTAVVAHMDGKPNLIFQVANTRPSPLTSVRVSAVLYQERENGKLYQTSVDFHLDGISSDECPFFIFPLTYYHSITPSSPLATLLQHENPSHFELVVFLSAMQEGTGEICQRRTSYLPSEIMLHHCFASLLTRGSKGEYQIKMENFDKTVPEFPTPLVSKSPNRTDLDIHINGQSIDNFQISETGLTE
The test is described as follows: Tl+ flux selectivity assay, Kir7.1(M125R). In kind it is cell-based. Conditions: n = 2 independent experiments in triplicate, read-out: Inhibition of Tl+ flux (IC50).

The IC50 is the midpoint of a concentration-inhibition curve. As to `CCC(=O)N1c2ccc(S(=O)(=O)Nc3cccc(OC)c3)cc2CC1C` (centres unmarked) [VU625, N-(3-methoxyphenyl)-2-methyl-1-propionylindoline-5-sulfonamide], the half-maximal inhibitory concentration (IC50) was 8.6 µM at Kir3.1/3.2 and more than 30 µM at Kir7.1(M125R).

For the origin of these results see article PMC4222822, “Discovery and Characterization of a Potent and Selective Inhibitor of Aedes aegypti Inward Rectifier Potassium Channels” (PLoS ONE, 2014).
